In brackets after ≈: the same amount, converted by molar mass. Read-outs that look alike come from different tables or passages of the source.
Experiments:
[1] = tested on: Helicobacter pylori strain RIGLD-HC180; assay: Anti-Helicobacter pylori activity by agar dilution method; format: cell-based; settings: RIGLDHC180, 72 h, tested 50 to 2000 μg/mL, read-out: MIC for the growth of Helicobacter pylori
Description: Anti-Helicobacter pylori activity of the samples was investigated by an agar dilution method according to our previous study ([17]). […] The Agar dilution method has been standardized previously as an appropriate method to determine minimum inhibitory concentrations (MIC) of water-insoluble and colored plant extracts. […] Growth control plates were included in each experiment. […] All the experiments were performed in triplicate. Plates, including amoxicillin, were used as a positive control ([17]).

[2] = molecular target: T1, Jack bean urease (Canavalia ensiformis, UniProt P07374); assay: biochemical; format: biochemical
T1 construct: purchased Sigma-Aldrich
T1 sequence (P07374 whole entry, looked up): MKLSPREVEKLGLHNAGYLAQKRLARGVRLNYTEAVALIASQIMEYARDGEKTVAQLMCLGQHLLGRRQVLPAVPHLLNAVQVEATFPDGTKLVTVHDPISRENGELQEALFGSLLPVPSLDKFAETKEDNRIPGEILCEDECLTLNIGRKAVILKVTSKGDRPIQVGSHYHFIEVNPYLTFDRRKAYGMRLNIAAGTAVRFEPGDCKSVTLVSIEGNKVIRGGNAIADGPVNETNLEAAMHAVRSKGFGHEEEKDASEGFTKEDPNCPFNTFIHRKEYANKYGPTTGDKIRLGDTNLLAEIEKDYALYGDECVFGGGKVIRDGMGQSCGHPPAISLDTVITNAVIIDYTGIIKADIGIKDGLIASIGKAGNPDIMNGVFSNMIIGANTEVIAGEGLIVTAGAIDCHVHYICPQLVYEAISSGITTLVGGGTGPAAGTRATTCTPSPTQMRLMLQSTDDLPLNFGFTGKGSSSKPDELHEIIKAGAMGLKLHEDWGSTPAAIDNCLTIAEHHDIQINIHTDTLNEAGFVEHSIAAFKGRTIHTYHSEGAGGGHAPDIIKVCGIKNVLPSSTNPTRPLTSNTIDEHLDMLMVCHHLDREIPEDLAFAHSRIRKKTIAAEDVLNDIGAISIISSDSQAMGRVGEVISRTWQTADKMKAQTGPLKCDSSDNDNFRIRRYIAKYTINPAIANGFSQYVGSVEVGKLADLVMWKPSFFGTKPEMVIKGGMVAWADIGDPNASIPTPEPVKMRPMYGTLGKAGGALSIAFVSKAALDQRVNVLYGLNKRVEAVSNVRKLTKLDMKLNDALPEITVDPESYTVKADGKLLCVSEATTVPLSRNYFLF
Description: Urease inhibitory activity was evaluated based on Tanaka et al. report ([18]). Jack bean urease (Sigma-Aldrich, Germany) was used as a surrogate for H. pylori urease. Each well of a 96-well plate contained 25 μL jack bean urease (6U, Sigma-Aldrich) and 25 μL different concentrations of tested materials that were prepared in phosphate buffer (PBS, pH 6.8 ) and DMSO 1% as a co-solvent. After 30 min incubation at room temperature, 200 μL of a stock solution composed of PBS (100 mM), urea (150 mM), and phenol red were added to each well. The absorbance changes were measured at 570 nm by a microplate reader. Hydroxyurea was used as the positive control ([18]).

[3] = tested on: bacteria; set-up: method as in earlier work; settings: combination with norfloxacin, ofloxacin and ciprofloxacin; ref 42 (Falcão‐Silva et al.); cited from earlier work
[4] = tested on: Staphylococcus aureus ATCC 6538; assay: Antibacterial activity by disc diffusion method, S. aureus; format: cell-based; settings: extract/fractions 500 µg/disc, ciprofloxacin 5 µg/disc, penicillin 10 µg/disc
Description: (§1) Briefly, overnight cultures of bacteria were used to prepare a bacterial inoculum in sterile normal saline. The bacterial inoculum was standardized to the turbidity of 0.5 McFarland (the density equivalent to 1.5 × 10^8 cfu/mL). The surface of Mueller-Hinton (MH) agar plates was covered by 100 µL of diluted bacterial suspension containing 5 ×10^5 cfu. Different concentrations of the plant extract or fraction were prepared. Sterile blank discs (6.4 mm diameter) containing different concentrations of the plant extract or fractions (15 μL) were placed on the agar plates. The mean inhibition zone diameter was measured after overnight incubation at 37 °C.

[5] = tested on: Staphylococcus epidermidis ATCC 12229; assay: Antibacterial activity by disc diffusion method, S. epidermidis; format: cell-based; settings: extract/fractions 500 µg/disc, ciprofloxacin 5 µg/disc, penicillin 10 µg/disc
Description: as §1

[6] = tested on: Escherichia coli ATCC 8739; assay: Antibacterial activity by disc diffusion method, E. coli; format: cell-based; settings: extract/fractions 500 µg/disc, ciprofloxacin 5 µg/disc, penicillin 10 µg/disc
Description: as §1

CC1(C)S[C@@H]2[C@H](NC(=O)[C@H](N)c3ccc(O)cc3)C(=O)N2[C@H]1C(=O)O [Amoxicillin, amoxicillin] gave an MIC [1] of 0.5 µg/mL (≈ 1.37 µM).
Cc1ccc(C(C)C)cc1O [Carvacrol] showed an IC50 [2] of 0.7 ± 0.01 mM.
In the case of NC(=O)NO [Hydroxyurea], the IC50 ([2]; isolated compounds, jack bean urease, read-out: Urease inhibitory IC50 (mM) ± SD) is reported as 0.78 ± 0.01 mM and the “Urease inhibitory IC50 (µg/mL) ± SD” value ([2]; total extract and fractions, jack bean urease) is reported as 59.51 ± 0.01 µg/mL.
Cc1ccc(C(C)C)c(O)c1 [Thymol] gave an IC50 [2] of 1.33 ± 0.06 mM.
For O=C(/C=C/c1ccc(O)cc1)OC[C@H]1O[C@@H](Oc2c(-c3ccc(O)cc3)oc3cc(O)cc(O)c3c2=O)[C@H](O)[C@@H](O)[C@@H]1O [Tiliroside, Kaempferol-3-O-(6''-O-trans-coumaryl) glucoside], the IC50 [2] is listed as 0.45 ± 0.05 mM and the “Lowering of antibiotic MIC values in combination with tiliroside” value [3] is listed as 2-16 fold.
With penicillin the “Inhibition zone, S. aureus” value [4] was 24 mm, the “Inhibition zone, S. epidermidis” value [5] was 26 mm and the “Inhibition zone, E. coli” value [6] was 10 mm.
